Source: US20260242824A1, “ONCOLYTIC VIRUSES TO TREAT BRAIN CANCER” (priority 2023, published 2026)

B1: Recombinant murine IL-11: recombinant murine IL-11 used to stimulate astrocytes at 50 ng/ml (protein, UniProt P47873 22-199, looked up)
Interleukin-11: PGPPAGSPRVSSDPRADLDSAVLLTRSLLADTRQLAAQMRDKFPADGDHSLDSLPTLAMSAGTLGSLQLPGVLTRLRVDLMSYLRHVQWLRRAGGPSLKTLEPELGALQARLERLLRRLQLLMSRLALPQAAPDQPVIPLGPPASAWGSIRAAHAILGGLHLTLDWAVRGLLLLKTRL

Experiments:
[1] = test system: STAT3; conditions: 2 μM in dimethyl sulfoxide; reported in ref [40]; cited from earlier work
[2] = test system: Tnfsf10 expression in astrocytes; assay: Tnfsf10 mRNA (qPCR) in stimulated primary mouse astrocytes; type: cell-based
Description: Isolation, culture, and stimulation of primary mouse astrocytes. Primary murine astrocytes were isolated from neonatal brains as previously described. Briefly, wild-type mouse pups aged 1-3 days were cryoanesthetized and decapitated. Whole brains were extracted, and 2-3 brains pooled per culture. After centrifugation for 5 min at 500×g, tissues were resuspended in 5 mL pre-warmed 0.25% Trypsin-EDTA (Thermo Fisher Scientific, 25200-072) and incubated at 37° C. for 10 min, followed by addition of culture medium to stop the dissociation reaction, and mechanical disaggregation by strong pipetting. The suspension was then filtered through a 70 μm nylon strainer and centrifuged 5 min at 500×g. Finally, the suspension was seeded onto T75 flasks (Falcon, 353136) that were coated at room temperature for 10 min with poly-L-lysine (Sigma-Aldrich, P4707). Mixed glial cultures were grown for at least 10 days prior to enrichment of astrocytes per the following method. […]
For quantitative analysis of gene transcription from cultured cells cellular RNA was extracted by use of RNeasy Kit (Qiagen, 74004). […] Quantitative measurement of gene expression was performed by qPCR using Taqman Fast Universal PCR Master Mix (Life Technologies, 4367846), MicroAmp Optical 384 well plates (Thermo Fisher Scientific, 43-098-49) and a ViiA 7 Real-Time PCR System (Applied Biosciences). […]

Molecule | effectiveness and cytotoxicity at the concentration used [1] | TCM-induced expression of Tnfsf10 transcripts upon STAT inhibition ([2]; GL261 TCM-stimulated astrocytes, inhibitor 2 μM, vs vehicle) | Tnfsf10 expression upon recombinant murine IL-11 alone ([2]; astrocytes, 50 ng/ml, levels comparable to GL261 TCM, vs control medium)
O=C(Nc1ccc([N+](=O)[O-])cc1Cl)c1cc(Cl)ccc1O [BAY2353, Niclosamide] | effective but not cytotoxic | fully abrogated | –
B1 | – | – | sufficient to induce Tnfsf10 expression
